Assay [1] relates to insulin resistant rats. In words: Early insulin response to an oral glucose challenge in insulin resistant rats. The assay is classed as in vivo, Male Sprague-Dawley rats. Conditions: 10 μmol/kg oral in CMC, 30 min before oral glucose 1 g/kg; high fat diet rats; % increase of the mean of the control animals. Here is the method: Male Sprague-Dawley rats that had been fed a high fat diet (saturated fat=57% calories) for 2-3 weeks were fasted for approximately 2 hours on the day of testing, divided into groups of 8-10, and dosed orally with 10 μmol/kg of the test compounds in CMC. An oral glucose bolus of 1 g/kg was administered 30 minutes after the test compound directly into the stomach of the test animals. Blood samples, obtained at various timepoints from chronic jugular vein catheters, were analyzed for plasma glucose and immunoreactive insulin (IRI) concentrations, and plasma DPP-IV activity. Plasma insulin levels were assayed by a double antibody radioimmunoassay (RIA) method using a specific anti-rat insulin antibody from Linco Research (St. Louis, Mo.). The RIA has a lower limit of detection of 0.5 μU/mL with intra- and inter-assay variations of less than 5%. Data are expressed as % increase of the mean of the control animals. Upon oral administration, each of the compounds tested amplified the early insulin response which led to an improvement in glucose tolerance in the insulin resistant test animals.

Assay [2] has as its target rat plasma DPP-IV (Rattus norvegicus, UniProt P14740). Briefly: DPP-IV inhibition in rat plasma.
Protocol: (§1) Briefly, 5 μl of plasma are added to 96-well flat-bottom microtiter plates (Falcon), followed by the addition of 5 μl of 80 mM MgCl2 in incubation buffer (25 mMHEPES, 140 mM NaCl, 1% RIA-grade BSA, pH 7.8). After a 60 min. incubation at room temperature, the reaction is initiated by the addition of 10 μl of incubation buffer containing 0.1 mM substrate (H-Glycine-Proline-AMC;AMC is 7-amino-4-methylcoumarin). The plates are covered with aluminum foil (or kept in the dark) and incubated at room temperature for 20 min. […] A fluorescence-concentration curve of free AMC is generated using 0-50 μM solutions of AMC in assay buffer. The curve generated is linear and is used for interpolation of substrate consumption (catalytic activity in nmoles substrate cleaved/min). As with the previous assay, the potency of the test compounds as DPP-IV inhibitors, expressed as IC50, is calculated from 8-point, dose-response curves using a 4 parameter logistic function.
The target in assay [3] is human plasma DPP-IV (Homo sapiens, UniProt P27487). Briefly: DPP-IV inhibition in human plasma. The class given is biochemical. Conditions: substrate H-Glycine-Proline-AMC, pH 7.8, room temperature, 8-point curve.
human plasma DPP-IV, sequence (P27487 39-766 limits assumed): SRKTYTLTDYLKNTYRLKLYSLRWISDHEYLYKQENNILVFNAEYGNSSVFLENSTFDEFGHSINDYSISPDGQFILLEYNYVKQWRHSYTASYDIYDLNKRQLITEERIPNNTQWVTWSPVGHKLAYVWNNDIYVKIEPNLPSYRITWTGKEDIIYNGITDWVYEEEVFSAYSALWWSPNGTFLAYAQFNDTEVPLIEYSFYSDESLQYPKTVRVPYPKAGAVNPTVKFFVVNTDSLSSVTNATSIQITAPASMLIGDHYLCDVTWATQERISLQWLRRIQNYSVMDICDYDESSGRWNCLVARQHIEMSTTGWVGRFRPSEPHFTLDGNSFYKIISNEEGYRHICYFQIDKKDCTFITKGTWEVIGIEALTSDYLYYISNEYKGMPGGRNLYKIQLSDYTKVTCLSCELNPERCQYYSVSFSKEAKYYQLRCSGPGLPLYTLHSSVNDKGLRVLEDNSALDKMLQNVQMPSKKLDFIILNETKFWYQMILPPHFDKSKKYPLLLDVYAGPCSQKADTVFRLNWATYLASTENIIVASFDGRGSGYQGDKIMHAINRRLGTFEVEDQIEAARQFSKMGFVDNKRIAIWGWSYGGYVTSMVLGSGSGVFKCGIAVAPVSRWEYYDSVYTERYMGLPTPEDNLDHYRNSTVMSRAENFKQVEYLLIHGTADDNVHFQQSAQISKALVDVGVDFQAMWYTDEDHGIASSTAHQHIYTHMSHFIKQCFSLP
Protocol: as §1

pIC50: −log10 of the molar value.

The text below walks through data of patent US6166063A, “N-(substituted glycyl)-2-cyanopyrrolidines, pharmaceutical compositions containing them and their use in inhibiting dipeptidyl peptidase-IV” (Novartis AG, priority 1999, dated 2000).

rat plasma DPP-IV, sequence (P14740 37-767 limits assumed): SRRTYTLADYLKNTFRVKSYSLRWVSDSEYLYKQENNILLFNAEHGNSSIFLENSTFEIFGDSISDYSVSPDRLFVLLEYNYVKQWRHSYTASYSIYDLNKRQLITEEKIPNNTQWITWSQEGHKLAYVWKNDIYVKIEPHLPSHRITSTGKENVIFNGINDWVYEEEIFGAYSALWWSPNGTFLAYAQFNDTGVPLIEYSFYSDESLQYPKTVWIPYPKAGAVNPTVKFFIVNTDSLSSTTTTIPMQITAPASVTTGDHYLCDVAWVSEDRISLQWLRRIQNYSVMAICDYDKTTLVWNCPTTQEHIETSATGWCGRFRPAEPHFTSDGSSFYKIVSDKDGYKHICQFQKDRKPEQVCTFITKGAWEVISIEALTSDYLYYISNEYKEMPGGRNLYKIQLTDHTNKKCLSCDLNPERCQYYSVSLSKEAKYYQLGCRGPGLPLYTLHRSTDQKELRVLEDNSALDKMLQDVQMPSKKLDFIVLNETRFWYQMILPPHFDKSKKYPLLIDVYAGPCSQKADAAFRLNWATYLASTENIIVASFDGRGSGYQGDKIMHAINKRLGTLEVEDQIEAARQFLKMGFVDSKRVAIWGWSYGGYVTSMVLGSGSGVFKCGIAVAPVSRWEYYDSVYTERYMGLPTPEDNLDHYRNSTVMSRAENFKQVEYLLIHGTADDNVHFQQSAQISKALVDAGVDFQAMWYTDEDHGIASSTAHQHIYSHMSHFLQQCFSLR

Turning to `N#C[C@@H]1CCCN1C(=O)CNC12CC3CC(CC(O)(C3)C1)C2` [Ex. 1, Pyrrolidine, 1-[(3-hydroxy-1-adamantyl)amino]acetyl-2-cyano-, (S)], the “Increase of Insulin Response” value in assay [1] is reported as 64%. For `N#C[C@@H]1CCCN1C(=O)CNC1C2CC3CC1CC(O)(C3)C2` (stereo partly drawn) [Ex. 8, Pyrrolidine, 1-[[(5-hydroxy-2-adamantyl)amino]-acetyl]-2-cyano-, (S)-], the pIC50 was 7.92 in assay [2] and 8.22 in assay [3].
